The values that follow come from the OPERA property sets (Mansouri et al. 2018).

`COc1c(OC)c(OC(C)=O)c2c(Cl)cccc2c1OC(C)=O` had a log partition coefficient (logP) of 3.16.

Compound `COc1c(OC)c(OC(=O)C(C)C)c2ccccc2c1OC(=O)C(C)C` had a logP of 4.61.

In turn, `COc1ccc2c(OC(C)=O)c(OC)c(OC)c(OC(C)=O)c2c1` gave a logP of 2.39.

`COc1c(OC)c(OC(C)=O)c2c(OC)cccc2c1OC(C)=O` returned a log partition coefficient (logP) of 2.43.

`COc1c(OC)c(OC(C)=O)c2ccccc2c1OC(C)=O` showed a lipophilicity (logP) of 2.39.

`COc1c(OC)c(OC(C)=O)c2cc(C#N)ccc2c1OC(C)=O` registered a logP of 2.28.

With `COc1c(OC)c(OC(C)=O)c2cc(Cl)ccc2c1OC(C)=O`, the logP was found to be 3.26.

Compound `COc1c(OC)c(OC(=O)C(C)(C)C)c2ccccc2c1OC(=O)C(C)(C)C` gave a lipophilicity (logP) of 5.69.

The compound `COc1c(OC)c(OC(C)=O)c2cc(C)ccc2c1OC(C)=O` yielded a log partition coefficient (logP) of 2.86.

`COc1c(OC)c(OC(C)=O)c2cc(F)ccc2c1OC(C)=O` gave a logP of 2.75.

With `COc1c(OC)c(OC(C)=O)c2c(C#N)cccc2c1OC(C)=O`, the log partition coefficient (logP) was found to be 2.51.

`COc1c(OC)c(OC(C)=O)c2cc(Br)ccc2c1OC(C)=O` showed a logP of 3.39.

A word on the logP: it is the decadic logarithm of the partition coefficient of the neutral form, usually between octanol and water.
